From patent US20230002367A1, “BIFUNCTIONAL COMPOUNDS” (Hoffmann-La Roche Inc., priority 2019, published 2023)

Biological target: T1, SMARCA2 (Homo sapiens, UniProt P51531)
T1 construct: endogenous in cells
Assay: SMARCA2 HiBiT degradation assay (cellular)
Type: cell-based
Conditions: for Emax: A549, Emax = amount of residual protein remaining in the cell following compound treatment; for DC50: SMARCA2 HiBiT cells, luminescence readout, 11-point titration from 10 μM, 6 hours or 16 hours, read-out: HiBit A549 SMARCA2 IP

T1 sequence (P51531 whole entry): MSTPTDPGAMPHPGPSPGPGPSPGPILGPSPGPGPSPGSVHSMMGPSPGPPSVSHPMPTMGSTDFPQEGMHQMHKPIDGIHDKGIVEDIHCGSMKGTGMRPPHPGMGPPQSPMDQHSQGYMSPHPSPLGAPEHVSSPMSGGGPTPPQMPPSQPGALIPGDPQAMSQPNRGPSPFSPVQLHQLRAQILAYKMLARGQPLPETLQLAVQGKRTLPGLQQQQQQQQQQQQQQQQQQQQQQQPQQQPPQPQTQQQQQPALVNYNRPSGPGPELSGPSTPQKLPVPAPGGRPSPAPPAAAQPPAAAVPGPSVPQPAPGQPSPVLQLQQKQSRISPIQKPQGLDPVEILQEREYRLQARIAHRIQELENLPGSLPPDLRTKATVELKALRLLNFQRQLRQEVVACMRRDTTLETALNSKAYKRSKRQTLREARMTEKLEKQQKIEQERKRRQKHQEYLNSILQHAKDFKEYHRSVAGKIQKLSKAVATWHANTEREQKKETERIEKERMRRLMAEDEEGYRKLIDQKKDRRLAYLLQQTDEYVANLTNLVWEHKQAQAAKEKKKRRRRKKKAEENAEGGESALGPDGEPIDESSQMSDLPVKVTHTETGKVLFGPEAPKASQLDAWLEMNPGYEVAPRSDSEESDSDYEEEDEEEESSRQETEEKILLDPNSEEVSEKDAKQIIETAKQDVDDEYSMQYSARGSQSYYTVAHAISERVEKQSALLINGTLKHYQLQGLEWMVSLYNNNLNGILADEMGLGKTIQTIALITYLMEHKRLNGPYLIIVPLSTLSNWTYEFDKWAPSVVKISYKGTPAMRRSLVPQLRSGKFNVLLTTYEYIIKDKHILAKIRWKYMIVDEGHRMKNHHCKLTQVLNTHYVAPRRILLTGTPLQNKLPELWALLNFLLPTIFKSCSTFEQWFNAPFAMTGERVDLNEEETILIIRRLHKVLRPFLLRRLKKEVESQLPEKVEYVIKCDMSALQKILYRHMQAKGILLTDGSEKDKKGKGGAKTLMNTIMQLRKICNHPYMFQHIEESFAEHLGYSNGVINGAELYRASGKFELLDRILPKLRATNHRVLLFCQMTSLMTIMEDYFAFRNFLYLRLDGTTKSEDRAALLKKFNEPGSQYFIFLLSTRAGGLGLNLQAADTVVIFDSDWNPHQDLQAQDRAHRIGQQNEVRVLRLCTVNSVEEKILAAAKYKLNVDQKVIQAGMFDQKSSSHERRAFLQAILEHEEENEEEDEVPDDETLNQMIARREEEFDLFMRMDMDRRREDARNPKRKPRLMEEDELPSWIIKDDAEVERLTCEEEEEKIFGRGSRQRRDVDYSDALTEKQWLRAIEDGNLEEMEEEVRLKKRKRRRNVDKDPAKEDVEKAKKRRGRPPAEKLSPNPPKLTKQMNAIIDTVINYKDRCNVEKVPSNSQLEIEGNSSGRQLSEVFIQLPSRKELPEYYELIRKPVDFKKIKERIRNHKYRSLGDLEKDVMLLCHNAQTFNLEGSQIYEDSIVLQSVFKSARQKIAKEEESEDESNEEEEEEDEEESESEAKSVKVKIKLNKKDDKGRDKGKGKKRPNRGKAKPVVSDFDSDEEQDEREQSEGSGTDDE

SMILES	Emax [%]	DC50 [nM]
Cc1ncsc1-c1ccc(CNC(=O)[C@@H]2C[C@@H](O)CN2C(=O)C(NC(=O)CCCCCCC(=O)N2CCC3(CC2)CCN(c2cc(-c4ccccc4O)nnc2N)CC3)C(C)(C)C)cc1 (stereo in doubt) [Example 6, (2S,4R)-1-[(2R)-2-[[8-[9-[3-amino-6-(2-hydroxyphenyl)pyridazin-4-yl]-3,9-diazaspiro[5.5]undecan-3-yl]-8-oxo-octanoyl]amino]-3,3-dimethyl-butanoyl]-4-hydroxy-N-[[4-(4-methylthiazol-5-yl)phenyl]methyl]pyrrolidine-2-carboxamide]	54	2910
Cc1ncsc1-c1ccc([C@@H](C)NC(=O)[C@H]2C[C@H](O)CN2C(=O)[C@H](NC(=O)CCOCCC(=O)N2CCN(c3ccc(N4CCCC(Oc5cc(-c6ccccc6O)nnc5N)C4)cc3)CC2)C(C)(C)C)cc1 (stereo in doubt) [Example 31, (2R,4S)-1-((2R)-2-(3-(3-(4-(4-(3-((3-amino-6-(2-hydroxyphenyl)pyridazin-4-yl)oxy)piperidin-1-yl)phenyl)piperazin-1-yl)-3-oxopropoxy)propanamido)-3,3-dimethylbutanoyl)-4-hydroxy-N-((R)-1-(4-(4-methylthiazol-5-yl)phenyl)ethyl)pyrrolidine-2-carboxamide]	30	1920
Cc1ncsc1-c1ccc(CNC(=O)[C@@H]2C[C@@H](O)CN2C(=O)[C@@H](NC(=O)CCCCCCCCC(=O)N2CCN(c3cc(-c4ccccc4O)nnc3N)CC2)C(C)(C)C)cc1 [Example 1, (2S,4R)-1-[(2S)-2-[[10-[4-[3-amino-6-(2-hydroxyphenyl)pyridazin-4-yl]piperazin-1-yl]-10-oxo-decanoyl]amino]-3,3-dimethyl-butanoyl]-4-hydroxy-N-[[4-(4-methylthiazol-5-yl)phenyl]methyl]pyrrolidine-2-carboxamide]	52	2780
Cc1ncsc1-c1ccc(CNC(=O)[C@@H]2C[C@@H](O)CN2C(=O)[C@@H](NC(=O)CCCCCCCC(=O)N2CCN(CCOc3cccc(N4C5CCC4CN(c4cc(-c6ccccc6O)nnc4N)C5)c3)CC2)C(C)(C)C)cc1 [Example 2, (2S,4R)-1-[(2S)-2-[[9-[4-[2-[3-[3-[3-amino-6-(2-hydroxyphenyl)pyridazin-4-yl]-3,8-diazabicyclo[3.2.1]octan-8-yl]phenoxy]ethyl]piperazin-1-yl]-9-oxo-nonanoyl]amino]-3,3-dimethyl-butanoyl]-4-hydroxy-N-[[4-(4-methylthiazol-5-yl)phenyl]methyl]pyrrolidine-2-carboxamide]	38	478
Cc1ncsc1-c1ccc(CNC(=O)[C@@H]2C[C@@H](O)CN2C(=O)[C@@H](NC(=O)CCCCCCCC(=O)N2CCN(Cc3cccc(N4C5CCC4CN(c4cc(-c6ccccc6O)nnc4N)C5)c3)CC2)C(C)(C)C)cc1 [Example 3, (2S,4R)-1-[(2S)-2-[[9-[4-[[3-[3-[3-amino-6-(2-hydroxyphenyl)pyridazin-4-yl]-3,8-diazabicyclo[3.2.1]octan-8-yl]phenyl]methyl]piperazin-1-yl]-9-oxo-nonanoyl]amino]-3,3-dimethyl-butanoyl]-4-hydroxy-N-[[4-(4-methylthiazol-5-yl)phenyl]methyl]pyrrolidine-2-carboxamide]	51	479
Cc1ncsc1-c1ccc(CNC(=O)[C@@H]2C[C@@H](O)CN2C(=O)[C@@H](NC(=O)CCCCCCCCC(=O)N2CCN(c3cc(-c4ccccc4O)nnc3N)CC2C)C(C)(C)C)cc1 (stereo partly drawn) [Example 4, (2S,4R)-1-[(2S)-2-[[10-[4-[3-amino-6-(2-hydroxyphenyl)pyridazin-4-yl]-2-methyl-piperazin-1-yl]-10-oxo-decanoyl]amino]-3,3-dimethyl-butanoyl]-4-hydroxy-N-[[4-(4-methylthiazol-5-yl)phenyl]methyl]pyrrolidine-2-carboxamide]	36	2930
Cc1ncsc1-c1ccc(CNC(=O)[C@@H]2C[C@@H](O)CN2C(=O)[C@@H](NC(=O)CCCCCCCCC(=O)N2C3CCC2CN(c2cc(-c4ccccc4O)nnc2N)C3)C(C)(C)C)cc1 [Example 5, (2S,4R)-1-[(2S)-2-[[10-[3-[3-amino-6-(2-hydroxyphenyl)pyridazin-4-yl]-3,8-diazabicyclo[3.2.1]octan-8-yl]-10-oxo-decanoyl]amino]-3,3-dimethyl-butanoyl]-4-hydroxy-N-[[4-(4-methylthiazol-5-yl)phenyl]methyl]pyrrolidine-2-carboxamide]	31	2510
Cc1ncsc1-c1ccc(CNC(=O)[C@@H]2C[C@@H](O)CN2C(=O)[C@@H](NC(=O)CCCCCCCCCC(=O)N2CCN(Cc3cccc(N4C5CCC4CN(c4cc(-c6ccccc6O)nnc4N)C5)c3)CC2)C(C)(C)C)cc1 [Example 7, (2S,4R)-1-[(2S)-2-[[11-[4-[[3-[3-[3-amino-6-(2-hydroxyphenyl)pyridazin-4-yl]-3,8-diazabicyclo[3.2.1]octan-8-yl]phenyl]methyl]piperazin-1-yl]-11-oxo-undecanoyl]amino]-3,3-dimethyl-butanoyl]-4-hydroxy-N-[[4-(4-methylthiazol-5-yl)phenyl]methyl]pyrrolidine-2-carboxamide]	39	357
Cc1ncsc1-c1ccc(CNC(=O)[C@@H]2C[C@@H](O)CN2C(=O)[C@H](NC(=O)CCCCCCC(=O)N2CCN(CCOc3cccc(N4C5CCC4CN(c4cc(-c6ccccc6O)nnc4N)C5)c3)CC2)C(C)(C)C)cc1 [Example 8, (2S,4R)-1-[(2R)-2-[[8-[4-[2-[3-[3-[3-amino-6-(2-hydroxyphenyl)pyridazin-4-yl]-3,8-diazabicyclo[3.2.1]octan-8-yl]phenoxy]ethyl]piperazin-1-yl]-8-oxo-octanoyl]amino]-3,3-dimethyl-butanoyl]-4-hydroxy-N-[[4-(4-methylthiazol-5-yl)phenyl]methyl]pyrrolidine-2-carboxamide]	48	610
Cc1ncsc1-c1ccc(CNC(=O)[C@@H]2C[C@@H](O)CN2C(=O)[C@H](NC(=O)CCCCCC(=O)N2CCN(CCOc3cccc(N4C5CCC4CN(c4cc(-c6ccccc6O)nnc4N)C5)c3)CC2)C(C)(C)C)cc1 [Example 9, (2S,4R)-1-[(2R)-2-[[7-[4-[2-[3-[3-[3-amino-6-(2-hydroxyphenyl)pyridazin-4-yl]-3,8-diazabicyclo[3.2.1]octan-8-yl]phenoxy]ethyl]piperazin-1-yl]-7-oxo-heptanoyl]amino]-3,3-dimethyl-butanoyl]-4-hydroxy-N-[[4-(4-methylthiazol-5-yl)phenyl]methyl]pyrrolidine-2-carboxamide]	58	733
Cc1ncsc1-c1ccc(CNC(=O)[C@@H]2C[C@@H](O)CN2C(=O)[C@@H](NC(=O)CCCCCCCCC(=O)N2CCN(CCOc3cccc(N4C5CCC4CN(c4cc(-c6ccccc6O)nnc4N)C5)c3)CC2)C(C)(C)C)cc1 [Example 10, (2S,4R)-1-[(2S)-2-[[10-[4-[2-[3-[3-[3-amino-6-(2-hydroxyphenyl)pyridazin-4-yl]-3,8-diazabicyclo[3.2.1]octan-8-yl]phenoxy]ethyl]piperazin-1-yl]-10-oxo-decanoyl]amino]-3,3-dimethyl-butanoyl]-4-hydroxy-N-[[4-(4-methylthiazol-5-yl)phenyl]methyl]pyrrolidine-2-carboxamide]	19	286
Cc1ncsc1-c1ccc(CNC(=O)[C@@H]2C[C@@H](O)CN2C(=O)[C@@H](NC(=O)CCCCCCCCCC(=O)N2CCN(CCOc3cccc(N4C5CCC4CN(c4cc(-c6ccccc6O)nnc4N)C5)c3)CC2)C(C)(C)C)cc1 [Example 11, (2S,4R)-1-[(2S)-2-[[11-[4-[2-[3-[3-[3-amino-6-(2-hydroxyphenyl)pyridazin-4-yl]-3,8-diazabicyclo[3.2.1]octan-8-yl]phenoxy]ethyl]piperazin-1-yl]-11-oxo-undecanoyl]amino]-3,3-dimethyl-butanoyl]-4-hydroxy-N-[[4-(4-methylthiazol-5-yl)phenyl]methyl]pyrrolidine-2-carboxamide]	20	104
Cc1ncsc1-c1ccc(CNC(=O)[C@@H]2C[C@@H](O)CN2C(=O)[C@@H](NC(=O)CCCCCCCCC(=O)N2CCOC3(CCN(c4cc(-c5ccccc5O)nnc4N)CC3)C2)C(C)(C)C)cc1 [Example 12, (2S,4R)-1-[(2S)-2-[[10-[9-[3-amino-6-(2-hydroxyphenyl)pyridazin-4-yl]-1-oxa-4,9-diazaspiro[5.5]undecan-4-yl]-10-oxo-decanoyl]amino]-3,3-dimethyl-butanoyl]-4-hydroxy-N-[[4-(4-methylthiazol-5-yl)phenyl]methyl]pyrrolidine-2-carboxamide]	43	2460
Cc1ncsc1-c1ccc(CNC(=O)[C@@H]2C[C@H](O)CN2C(=O)[C@@H](NC(=O)CCCCCCCC(=O)N2CCC(Cc3cccc(N4C5CCC4CN(c4cc(-c6ccccc6O)nnc4N)C5)c3)CC2)C(C)(C)C)cc1 [Example 13, (2S,4S)-1-[(2S)-2-[[9-[4-[[3-[3-[3-amino-6-(2-hydroxyphenyl)pyridazin-4-yl]-3,8-diazabicyclo[3.2.1]octan-8-yl]phenyl]methyl]-1-piperidyl]-9-oxo-nonanoyl]amino]-3,3-dimethyl-butanoyl]-4-hydroxy-N-[[4-(4-methylthiazol-5-yl)phenyl]methyl]pyrrolidine-2-carboxamide]	28	954
Cc1ncsc1-c1ccc(CNC(=O)[C@@H]2C[C@H](O)CN2C(=O)[C@@H](NC(=O)CCCCCC(=O)N2CCC(Cc3cccc(N4C5CCC4CN(c4cc(-c6ccccc6O)nnc4N)C5)c3)CC2)C(C)(C)C)cc1 [Example 14, (2S,4S)-1-[(2S)-2-[[7-[4-[[3-[3-[3-amino-6-(2-hydroxyphenyl)pyridazin-4-yl]-3,8-diazabicyclo[3.2.1]octan-8-yl]phenyl]methyl]-1-piperidyl]-7-oxo-heptanoyl]amino]-3,3-dimethyl-butanoyl]-4-hydroxy-N-[[4-(4-methylthiazol-5-yl)phenyl]methyl]pyrrolidine-2-carboxamide]	38	995
